The text below walks through data of patent US20230181556A1, “USE OF PSYCHOTROPIC DRUGS FOR THE TREATMENT OF CORONAVIRUS INFECTIONS” (priority 2020, published 2023).

“Also recorded” adds a separate entry of the source.

Data set [1] has as its system viruses as listed per drug. The following applies: virus or effect named in the literature; cited from earlier work.
The subject of data set [2] is phospholipidosis. The following applies: cited from earlier work.
Data set [3] addresses spike protein-ACE2 interaction (Homo sapiens, UniProt Q9BYF1). The following applies: Hou et al., Chemico-Biological Interactions 338 (2021) 109420; cited from earlier work.
The conditions of data set [4]: under 20 μM concentrations; Hou et al.; cited from earlier work.
Data set [5] relates to Vero-E6 cells. Kind of data set: cytotoxicity in mock infected cells. The class given is cell-based. The settings on record: same experiment (10 μM, 5 μM and 2 μM). As for the experimental part: One day prior to the assay, Vero-E6 cells (ATCC® CRL-1586) were plated in a 96-wells flat bottom tissue culture treated plate at a density of 2×10^4 cells/well. On the day of the assay, Vero-E6 cells were pre-treated with the different concentration (i.e. 10 μM, 5 μM and 2 μM) of the indicated drugs diluted in Dulbecco's Modified Eagles Medium (DMEM). After 1 h, the cells were infected with 50 μl of a viral inoculum at 1×10^3 TCID50/ml and incubated for 2 h at 37° C. to allow infection. Then, the virus-drug mixture was removed, cells were rinsed 3 times with PBS and were further cultured with fresh drug-containing medium (DMEM 5% FBS) for 3 days until microscopic examination was performed. Cytotoxicity of the tested drugs were determined in the same experiment in mock infected cells. The half maximal inhibitory concentration (IC50) were analyzed by non-linear regression using a four-parameter dosage-response variable slope model with the GraphPad Prism 8.0.2 software (GraphPad Software, USA).

Sequence of spike protein-ACE2 interaction (Q9BYF1 18-805): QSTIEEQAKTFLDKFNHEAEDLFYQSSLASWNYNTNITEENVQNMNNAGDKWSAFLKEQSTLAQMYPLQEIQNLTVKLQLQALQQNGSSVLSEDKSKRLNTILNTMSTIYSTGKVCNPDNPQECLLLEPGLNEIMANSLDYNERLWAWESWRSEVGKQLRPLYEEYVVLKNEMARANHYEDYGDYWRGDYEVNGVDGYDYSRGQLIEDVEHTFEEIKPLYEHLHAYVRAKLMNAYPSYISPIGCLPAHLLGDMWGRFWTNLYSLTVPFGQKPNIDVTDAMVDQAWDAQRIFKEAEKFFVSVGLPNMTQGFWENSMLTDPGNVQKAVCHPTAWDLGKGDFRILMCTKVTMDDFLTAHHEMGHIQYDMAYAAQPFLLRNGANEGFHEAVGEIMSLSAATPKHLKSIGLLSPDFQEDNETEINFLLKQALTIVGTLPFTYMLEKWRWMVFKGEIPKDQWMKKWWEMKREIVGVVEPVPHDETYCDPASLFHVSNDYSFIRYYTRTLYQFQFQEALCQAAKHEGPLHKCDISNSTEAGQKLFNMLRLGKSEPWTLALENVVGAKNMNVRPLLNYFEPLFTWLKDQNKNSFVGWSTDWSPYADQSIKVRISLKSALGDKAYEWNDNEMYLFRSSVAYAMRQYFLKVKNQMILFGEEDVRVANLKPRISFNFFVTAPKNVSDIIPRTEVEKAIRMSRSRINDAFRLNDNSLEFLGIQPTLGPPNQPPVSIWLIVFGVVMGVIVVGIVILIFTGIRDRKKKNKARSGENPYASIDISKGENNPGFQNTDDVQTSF

On to `CCN(CCO)CCCC(C)Nc1ccnc2cc(Cl)ccc12` (stereo not drawn) [Hydroxyl-chloroquine], for which, in data set [1], the “Examples of published in vitro antiviral activity” value (shortened to “Examples of published”) was “SARS-Cov-2”.

In the case of `CN[C@H]1CC[C@@H](c2ccc(Cl)c(Cl)c2)c2ccccc21` [Sertraline], the “PLD, known” value in data set [2] was “PLD compound”. Besides, the “Examples of published” value in data set [1] was “Ebola virus; also recorded: Zika Virus; also recorded: HIV in vivo”.

For the compound `CCN(CC)CCOc1ccc(C(=C(Cl)c2ccccc2)c2ccccc2)cc1` [Clomifene], the “Examples of published” value in data set [1] is reported as “Ebola, HCV”. For the compound `CCN(CC)CCCC(C)Nc1ccnc2cc(Cl)ccc12` (stereo not drawn) [Chloroquine], the “PLD, known” value in data set [2] is given as “PLD compound”. Also, in data set [1], the “Examples of published” value was “MERS, SARS,; also recorded: Filovirus”. Regarding `CN(C)CCOC(C)(c1ccccc1)c1ccc(Cl)cc1` (stereo not drawn) [Chlorphenoxamine], the “Examples of published” value in data set [1] was “MERS, SARS”.

Consider `CCOC(=O)N1CCC(=C2c3ccc(Cl)cc3CCc3cccnc32)CC1` [Loratadine], for which the “block of spike protein-ACE2 interaction” value in data set [3] is recorded as “efficient to block spike protein-ACE2 interaction”. Further, the Cytotoxicity entry in data set [4] is on record as “No cytotoxicity was observed”. In the case of `O=C(O)COCCN1CCN(C(c2ccccc2)c2ccc(Cl)cc2)CC1` (stereo not drawn) [Cetirizine], the “Examples of published” value in data set [1] is “HRV (Antiviral”. With `O=C(CCCN1CCC(O)(c2ccc(Cl)cc2)CC1)c1ccc(F)cc1` [Haloperidol], the “Examples of published” value in data set [1] is reported as “SARS-CoV-2”. Turning to `CN(C)CCCN1c2ccccc2CCc2ccc(Cl)cc21` [Clomipramine], the “Examples of published” value in data set [1] was “MERS, SARS”. With `Clc1ccc(C(OCCN2CCCCC2)c2ccccc2)cc1` (stereo not drawn) [Cloperastine], the “Examples of published” value in data set [1] is on record as “SARS-CoV-2”. With `CC(CN1c2ccccc2Sc2ccccc21)N(C)C` (stereo not drawn) [Promethazine], the Cytotoxicity result in data set [5] is “not found to be cytotoxic”. Further, the “Examples of published” value in data set [1] is “Ebola (Sci Transl Med”. Regarding `CN1CCCC(n2nc(Cc3ccc(Cl)cc3)c3ccccc3c2=O)CC1` (stereo not drawn) [Azelastine], the Cytotoxicity result in data set [5] is “not found to be cytotoxic”. As for `COc1ccc2[nH]cc(CCNC(C)=O)c2c1` [Melatonin], the “Examples of published” value in data set [1] is listed as “Possible roles”. Consider `Clc1ccc2c(c1)CCc1cccnc1C2=C1CCNCC1` [Desloratadine], for which the Cytotoxicity result in data set [5] is on record as “not found to be cytotoxic”; in data set [4] it was “No cytotoxicity was observed”.

In the case of `CN(C)CCCN1c2ccccc2Sc2ccc(Cl)cc21` [Chlorpromazine], the “PLD, known” value in data set [2] is “PLD agent”. Also, in data set [1], the “Examples of published” value is on record as “MERS, SARS”.
